Experimental data reported in patent EP1762239A1, “Lofexidine for intraspinal administration” (Texcontor Etablissement, priority 2005, dated 2007).
Where “and” joins values, the source holds several entries; their conditions need not be identical. Equal values may be shown once. Where a name gives a salt, the structure may show the parent alone.

Legend:
[1] = tested on: rat model of neuropathic pain; test: Nerve ligation-induced chronic (neuropathic) pain model, mechanical allodynia by electronic von Frey; assay type: in vivo, Wistar rats; conditions: for Tactile Pressure (g) Post-Treatment Average / Tactile Pressure (g) Δ Treatment Average: group of 5; for Tactile Pressure (g) Post-Treatment / Tactile Pressure (g) Δ Treatment: individual animal; for Inhibition (%): Δ Treatment/Δ Blank x 100%
Description: Lofexidine was evaluated for possible analgesic activity in neuropathic pain using a nerve ligation-induced chronic pain model in rats. Lofexidine HCl was administered intrathecally (ITH) at 3.2 and 10 µg/animal and analgesia was measured at 15, 30, 60 and 120 minutes post-dosing using an Electronic Von Frey Aesthesiometer (IITC, USA) with a #12 supertip. A 50 % or greater (≥50%) inhibition relative to blank indicates possible analgesic activity. Lofexidine HCl at doses of 3.2 and 10 µg/animal were administered intrathecally. Sterile Saline (obtained from Sintong Biotech Company, Taiwan) was used as vehicle and dosing volume was 10 µl/animal. Male Wistar rats provided by Biolasco Taiwan (under a Charles River Laboratories Technology Licensee) were used. Space allocation for 6 animals was 45 x 23 x 21 cm. Animals were housed in APEC^R cages and maintained in a controlled temperature (22-23°C) and humidity (60-70%) environment with 12 hours light dark cycles for at least one week in MDS Pharma Services - Taiwan Laboratory prior to use. Free access to standard lab chow for rats (Lab Diet, Rodent Diet, PMI Nutrition International, USA) and tap water was granted. All aspects of this work including housing, experimentation and disposal of animals were performed in general accordance with the Guide for the Care and Use of Laboratory Animals (National Academy Press, Washington, D. C, 1996). Male Wistar rats weighing 160 to 200 g were used. Under pentobarbital (50 mg/kg, 5 ml/kg, i.p.) anesthesia, the sciatic nerve was exposed at mid-thigh level. Three ligatures (4-0 silk suture), about 1 mm apart, were loosely tied around th e nerve. The animals were then housed individually in cages with soft bedding for 7 days before testing for mechanical allodynia. On the test day, rats were placed under inverted plexiglas cages on a wire mesh rack and allowed to acclimatise for 20 to 30 minutes. Allodynia was evaluated by responsiveness to a #12 Supertip® (IITC, USA) applied beneath the mesh floor perpendicular to the central plantar surface of the left hind paw. The tip was gradually applied with sufficient force to cause slight buckling of the filament against the paw. A positive response to the applied tactile pressure, noted by sharp withdrawal of the paw, was recorded automatically by an Electronic Von Frey Aesthesiometer (2290CE Electrovonfrey®, IITC, USA). The endpoint is the withdrawal threshold (gm) to von Frey filament, serving as a measure of analgesic activity. Rats were pre-selected (for presence of allodynia) for experimentation only if the withdrawal threshold 7 days after nerve ligation (pre-treatment) was reduced by 10 grams of force relative to the response of the individual paw before nerve ligation (pre-ligation). Test substance or vehicle was administered intrathecally (3.2 µg and 10 µg/animal) to groups of 5 animals and the level of allodynia was again determined (at 15, 30, 60 and 120 minutes post-treatment). Allodynia is calculated as follows: % Inhibition=Δ Treatment/Δ Blank x 100%; where Δ Treatment is Tactile Pressure [(Post-Treatment) -(Pre-Treatment)] and Δ Blank is Tactile Pressure [(Pre-Ligation) - (Pre-Treatment)]. A 50 percent or greater (≥50%) inhibition relative to blank indicates possible analgesic activity.

[2] = Brief observation of general behavior after intrathecal injection; assay type: in vivo, Wistar rats; conditions: 0.00032 mg/rat and 0.0032 mg/rat (ITH)
Description: Evaluation for pain was performed at 24 hours postoperatively between 08:00 and 16:00h. Each animal was monitored at 15, 30, 60 and 120 minutes after intrathecal administration of lofexidine.HCl. The rats were placed under inverted plexiglas cages on a wire mesh rack and a brief observation of general behavior post-injection was made. The rigid tip part of the Electronic Von Frey Aesthesiometer was applied perpendicularly from underneath the mesh floor to the four points around the wound surface of the animal with slow upward force against the paw. A positive response to tactile pressure was recorded if the paw was sharply withdrawn; ambulation was considered an ambiguous response, and in such cases, the stimulus was reapplied. Mean values from 4 points for each rat and from 5 rats in each group were calculated. Percent inhibition due to treatment relative to pre-treatment pain response was calculated according to the formula: Tactile Pressure [(Post-Treatment) - (Pre-Treatment)]/[(Pre-Incision) - (Pre-Treatment)] x 100%. Inhibition by 50% or more (≥50%) is considered significant analgesic effect. Unpaired Student's t test is applied for comparison of the % inhibition values between test substance-and vehicle-treated groups. Significance is considered at P<0.05 level

[3] = systemically (e.g. orally or by intravenous injection), especially at high doses (e.g. >600 µg per day); cited from earlier work
[4] = 3.2 µg/animal ITH, 120 Minutes, listed as Lofexidine HCI
[5] = 10 µg/animal ITH, 120 Minutes, listed as Lofexidine HCI

SMILES: CC(Oc1c(Cl)cccc1Cl)C1=NCCN1 (centres unmarked) [Lofexidine HCl]
- analgesic activity ([1]; 3.2 µg/animal): low levels of analgesic activity
- Tactile Pressure (g) Post-Treatment Average ([1]; 3.2 µg/animal ITH, 15 Minutes): 12.5 g
- Tactile Pressure (g) Δ Treatment Average ([1]; 3.2 µg/animal ITH, 15 Minutes, Δ Blank 30.2): 1.3 g
- Tactile Pressure (g) Post-Treatment ([1]; 3.2 µg/animal ITH, 15 Minutes): 8.9 g and 5.8 g and 23.3 g and 13.4 g and 10.9 g
- Tactile Pressure (g) Δ Treatment ([1]; 3.2 µg/animal ITH, 15 Minutes): -1.8 g and -5.2 g and 8.5 g and 6.3 g and -1.1 g
- Inhibition (%) ([1]; 3.2 µg/animal ITH, 15 Minutes): 4%
- Tactile Pressure (g) Post-Treatment Average ([1]; 3.2 µg/animal ITH, 30 Minutes): 10.1 g
- Tactile Pressure (g) Δ Treatment Average ([1]; 3.2 µg/animal ITH, 30 Minutes, Δ Blank 30.2): -1.1 g
- Tactile Pressure (g) Post-Treatment ([1]; 3.2 µg/animal ITH, 30 Minutes): 7.4 g and 14.2 g and 8.5 g and 10.0 g and 10.2 g
- Tactile Pressure (g) Δ Treatment ([1]; 3.2 µg/animal ITH, 30 Minutes): -3.8 g and -0.6 g and 1.4 g and -2.0 g and -0.5 g
- Inhibition (%) ([1]; 3.2 µg/animal ITH, 30 Minutes): -4%
- Tactile Pressure (g) Post-Treatment Average ([1]; 3.2 µg/animal ITH, 60 Minutes): 9.3 g
- Tactile Pressure (g) Δ Treatment Average ([1]; 3.2 µg/animal ITH, 60 Minutes, Δ Blank 30.2): -1.8 g
- Tactile Pressure (g) Post-Treatment ([1]; 3.2 µg/animal ITH, 60 Minutes): 7.5 g and 12.7 g and 11.3 g and 6.5 g and 8.7 g
- Tactile Pressure (g) Δ Treatment ([1]; 3.2 µg/animal ITH, 60 Minutes): -3.7 g and -2.1 g and 4.2 g and -5.5 g and -2.0 g
- Inhibition (%) ([1]; 3.2 µg/animal ITH, 60 Minutes): -6%
- Tactile Pressure (g) Post-Treatment Average ([1]; 3.2 µg/animal ITH, 120 Minutes): 9.2 g
- Tactile Pressure (g) Δ Treatment Average ([1]; 3.2 µg/animal ITH, 120 Minutes, Δ Blank 30.2): -2.0 g
- Tactile Pressure (g) Post-Treatment [1, 4]: 6.1 g and 12.4 g and 7.9 g and 10.8 g and 8.6 g
- Tactile Pressure (g) Δ Treatment [1, 4]: -5.1 g and -2.4 g and 0.8 g and -1.2 g and -2.1 g
- Inhibition (%) ([1]; 3.2 µg/animal ITH, 120 Minutes): -7%
- Tactile Pressure (g) Post-Treatment Average ([1]; 10 µg/animal ITH, 15 Minutes): 23.3 g
- Tactile Pressure (g) Δ Treatment Average ([1]; 10 µg/animal ITH, 15 Minutes, Δ Blank 27.9): 13.0 g
- Tactile Pressure (g) Post-Treatment ([1]; 10 µg/animal ITH, 15 Minutes): >36.8 g and 12.4 g and 17.2 g and 26.7 g and 23.6 g
- Tactile Pressure (g) Δ Treatment ([1]; 10 µg/animal ITH, 15 Minutes): 24.7 g and 1.5 g and 11.0 g and 15.7 g and 12.3 g
- Inhibition (%) ([1]; 10 µg/animal ITH, 15 Minutes): 47%
- Tactile Pressure (g) Post-Treatment Average ([1]; 10 µg/animal ITH, 30 Minutes): 26.4 g
- Tactile Pressure (g) Δ Treatment Average ([1]; 10 µg/animal ITH, 30 Minutes, Δ Blank 27.9): 16.1 g
- Tactile Pressure (g) Post-Treatment ([1]; 10 µg/animal ITH, 30 Minutes): 42.6 g and 7.0 g and >31.5 g and >35.5 g and 15.6 g
- Tactile Pressure (g) Δ Treatment ([1]; 10 µg/animal ITH, 30 Minutes): 30.5 g and -3.9 g and 25.3 g and 24.5 g and 4.3 g
- Inhibition (%) ([1]; 10 µg/animal ITH, 30 Minutes): 58%
- Tactile Pressure (g) Post-Treatment Average ([1]; 10 µg/animal ITH, 60 Minutes): 20.8 g
- Tactile Pressure (g) Δ Treatment Average ([1]; 10 µg/animal ITH, 60 Minutes, Δ Blank 27.9): 10.5 g
- Tactile Pressure (g) Post-Treatment ([1]; 10 µg/animal ITH, 60 Minutes): 20.5 g and 15.1 g and 36.5 g and 23.2 g and 8.9 g
- Tactile Pressure (g) Δ Treatment ([1]; 10 µg/animal ITH, 60 Minutes): 8.4 g and 4.2 g and 30.3 g and 12.2 g and -2.4 g
- Inhibition (%) ([1]; 10 µg/animal ITH, 60 Minutes): 38%
- Tactile Pressure (g) Post-Treatment Average ([1]; 10 µg/animal ITH, 120 Minutes): 11.0 g
- Tactile Pressure (g) Δ Treatment Average ([1]; 10 µg/animal ITH, 120 Minutes, Δ Blank 27.9): 0.6 g
- Tactile Pressure (g) Post-Treatment [1, 5]: 13.5 g and 10.8 g and 11.8 g and 12.3 g and 6.4 g
- Tactile Pressure (g) Δ Treatment [1, 5]: 1.4 g and -0.1 g and 5.2 g and 1.3 g and -4.9 g
- Inhibition (%) ([1]; 10 µg/animal ITH, 120 Minutes): 2%
- peak of analgesic activity, time post-dosing ([1]; 10 µg/animal intrathecal): 30 min
- analgesic activity ([1]; 10 µg/animal intrathecal, 30 minutes post-injection): significant analgesic activity
- analgesic activity ([1]; 10 µg/animal intrathecal, 120 minutes post-dosing): no longer evident
- behavioral changes in treated animals [2]: did not cause behavioral changes
- gait after intrathecal injection ([2]; all treated animals): normal gait
- common symptoms associated with use [3]: drowsiness, sedation and blood pressure and heart rate increases
